± gives the expanded uncertainty stated by the source.
Experiment: mn = molality of the nth substance listed, in mol/kg
Details: 101 kPa, Liquid; for mass density: Vibrating tube method; for speed of sound: Pulse-echo method

C[N+](C)(C)[O-] [trimethylamine oxide] + O
Details	mass density, 288.15 K [kg/m3]	mass density, 293.15 K [kg/m3]	mass density, 298.15 K [kg/m3]	mass density, 303.15 K [kg/m3]	mass density, 308.15 K [kg/m3]	speed of sound, 298.15 K [m/s]
m1 = 0.0592	999.725 ± 0.38	998.807 ± 0.37	997.629 ± 0.36	996.213 ± 0.35	994.58 ± 0.34	1500.9 ± 2.7
m1 = 0.1182	1000.29 ± 0.7	999.358 ± 0.68	998.163 ± 0.66	996.73 ± 0.64	995.083 ± 0.63	1505.1 ± 5.1
m1 = 0.1768	1000.88 ± 1	999.919 ± 1	998.707 ± 0.97	997.258 ± 0.94	995.602 ± 0.91	1509.2 ± 7.5
m1 = 0.2361	1001.44 ± 1.4	1000.47 ± 1.4	999.234 ± 1.4	997.769 ± 1.3	996.09 ± 1.3	1513.3 ± 9.9
m1 = 0.2958	1002.09 ± 1.9	1001.09 ± 1.6	999.839 ± 1.6	998.357 ± 1.5	996.661 ± 1.7	1517.4 ± 12

NCC(=O)O [2-aminoacetic acid] + O
Details	mass density, 288.15 K [kg/m3]	mass density, 293.15 K [kg/m3]	mass density, 298.15 K [kg/m3]	mass density, 303.15 K [kg/m3]	mass density, 308.15 K [kg/m3]	speed of sound, 298.15 K [m/s]
m1 = 0.06261	1001.13 ± 0.11	1000.21 ± 0.11	999.029 ± 0.11	997.604 ± 0.11	995.978 ± 0.11	1499.9 ± 0.97
m1 = 0.1199	1002.98 ± 0.11	1002.03 ± 0.11	1000.83 ± 0.11	–	997.751 ± 0.11	1502.8 ± 0.98
m1 = 0.1769	1004.8 ± 0.11	1003.84 ± 0.11	1002.62 ± 0.11	1001.15 ± 0.11	999.494 ± 0.11	1505.8 ± 0.98
m1 = 0.2352	1006.65 ± 0.11	1005.66 ± 0.11	1004.42 ± 0.11	1002.94 ± 0.11	1001.28 ± 0.11	1508.8 ± 0.98
m1 = 0.2963	1008.56 ± 0.11	1007.54 ± 0.11	1006.29 ± 0.11	1004.79 ± 0.11	1003.12 ± 0.11	1512 ± 0.98

C[N+](C)(C)CC(=O)[O-] [(trimethylammonio)acetate] + O
Details	mass density, 288.15 K [kg/m3]	mass density, 293.15 K [kg/m3]	mass density, 298.15 K [kg/m3]	mass density, 303.15 K [kg/m3]	mass density, 308.15 K [kg/m3]	speed of sound, 298.15 K [m/s]
m1 = 0.06226	1000.25 ± 0.11	999.33 ± 0.11	998.149 ± 0.11	996.726 ± 0.11	995.1 ± 0.11	1501.3 ± 0.97
m1 = 0.125	1001.4 ± 0.11	1000.46 ± 0.11	999.253 ± 0.11	997.814 ± 0.11	996.18 ± 0.11	1505.9 ± 0.98
m1 = 0.1884	1002.54 ± 0.11	1001.57 ± 0.11	1000.35 ± 0.11	998.899 ± 0.11	997.254 ± 0.11	1510.5 ± 0.98
m1 = 0.2532	1003.69 ± 0.11	1002.7 ± 0.11	1001.46 ± 0.11	999.994 ± 0.11	998.337 ± 0.11	1515.2 ± 0.98
m1 = 0.3185	1004.83 ± 0.11	1003.83 ± 0.11	1002.56 ± 0.11	1001.08 ± 0.11	999.42 ± 0.11	1519.9 ± 0.99

CN(C)CC(=O)O [(Dimethylamino)acetic acid] + O
Details	mass density, 288.15 K [kg/m3]	mass density, 293.15 K [kg/m3]	mass density, 298.15 K [kg/m3]	mass density, 303.15 K [kg/m3]	mass density, 308.15 K [kg/m3]	speed of sound, 298.15 K [m/s]
m1 = 0.05966	1000.46 ± 0.11	999.537 ± 0.11	998.354 ± 0.11	996.925 ± 0.11	995.303 ± 0.11	1500.9 ± 0.98
m1 = 0.119	1001.8 ± 0.11	1000.85 ± 0.11	999.646 ± 0.11	998.203 ± 0.11	996.574 ± 0.11	1505.1 ± 0.98
m1 = 0.1791	1003.14 ± 0.11	1002.16 ± 0.11	1000.94 ± 0.11	999.477 ± 0.11	997.836 ± 0.11	1509.4 ± 0.98
m1 = 0.2399	1004.48 ± 0.11	1003.48 ± 0.11	1002.23 ± 0.11	1000.75 ± 0.11	999.104 ± 0.11	1513.6 ± 0.99
m1 = 0.3007	1005.8 ± 0.11	1004.78 ± 0.11	1003.51 ± 0.11	1002.02 ± 0.11	1000.37 ± 0.11	1517.9 ± 0.99

CNCC(=O)O [sarcosine] + O
Details	mass density, 288.15 K [kg/m3]	mass density, 293.15 K [kg/m3]	mass density, 298.15 K [kg/m3]	mass density, 303.15 K [kg/m3]	mass density, 308.15 K [kg/m3]	speed of sound, 298.15 K [m/s]
m1 = 0.05883	1000.7 ± 0.11	999.78 ± 0.11	998.598 ± 0.11	997.176 ± 0.11	995.552 ± 0.11	1500.3 ± 0.97
m1 = 0.1166	1002.25 ± 0.11	1001.31 ± 0.11	1000.12 ± 0.11	998.68 ± 0.11	997.042 ± 0.11	1503.9 ± 0.98
m1 = 0.1777	1003.88 ± 0.11	1002.92 ± 0.11	1001.7 ± 0.11	1000.25 ± 0.11	998.599 ± 0.11	1507.7 ± 0.98
m1 = 0.2363	1005.42 ± 0.11	1004.43 ± 0.11	1003.2 ± 0.11	1001.74 ± 0.11	1000.07 ± 0.11	1511.3 ± 0.98
m1 = 0.2987	1007.05 ± 0.11	1006.03 ± 0.11	1004.79 ± 0.11	1003.31 ± 0.11	1001.63 ± 0.11	1515.2 ± 0.98

— the NIST ThermoML archive (doi:10.1016/j.jct.2013.01.023)
